Reference: article PMC11610669, “A Spectroscopic Study on the Amyloid‐β Interaction with Clicked Peptide‐Porphyrin Conjugates: a Vision Toward the Detection of Aβ Peptides in Aqueous Solution” (Chembiochem, 2024)
Square brackets hold non-standard residues; d marks the D form. Peptide text beside a SMILES is read from it. Lys(N3) = [N-]=[N+]=NCCCC[C@H](N)C(=O)O

Target: Aβ42 (Homo sapiens, UniProt P05067)
Test: Grating-Coupled Interferometry (GCI) binding to immobilized Aβ42
Conditions: GCI fit quality parameter
Method: The Grating‐Coupled Interferometry (GCI) is a widely used analytical technique for characterizing intermolecular interactions. It allows quantitative measurements of both the affinity and the kinetics of the binding events. This high sensitivity label‐free method was exploited to measure the interactions of Aβ42 with Cu‐Ph‐Pep , Ph‐Pep , and Zn‐Ph‐Pep (Figure 5S). Control experiments with pristine MCPTPyP and the peptide GPGKLVFF ( Pep ) were carried out for comparison. The calculated association and dissociation kinetic constants (kon and koff, respectively) and the thermodynamic binding constant (KD), are summarized in Table 1. The obtained values indicate that all the conjugates show good affinities with Aβ42. It is also clear from Table 1 that the peptide moiety is fundamental for the molecular recognition of the Aβ42 peptide.[48] […] Nevertheless, it is important to emphasize that the interaction with Aβ42 is primarily mediated by the peptide rather than by the porphyrin macrocycle. We next investigated whether these peptide derivatives could be employed as molecular probes for the detection of Aβ42 aggregated species. A new set of CD experiments was then carried out with Aβ42 at 20 μM both in the absence and in the presence of the porphyrin‐peptide conjugates at 1 : 1 molar ratio in the UV (195–350) and Visible (350–500) regions. […] The signal rapidly evolved toward the typical β‐sheet profile (already within 24 h) with a single minimum at 216 nm, an x‐axis intercept at 202 nm and a maximum shift at a wavelength 195 nm.[49] […] For the sake of comparison, the CD spectra of the porphyrin‐peptide conjugates at 20 μM were also recorded in the same experimental conditions, both in the far‐UV and Visible regions (Figure 6S).
The experiments were performed on a Creoptix WAVE system (Creoptix). Borate buffer (100 mM sodium borate pH 9.0, 1 M NaCl) was used for chip conditioning. Aβ42 peptide (20 μg/ml in Na Acetate pH 4.5) was immobilized on 4PCH WAVE chips (quasiplanar polycarboxylate surface; Creoptix) according to the manufacturer instructions at a final density of 1910±40 pg/mm^2. Single‐cycle sequential injections of dilution series for each Porphyrin‐Peptide conjugates in running buffer (PBS, 0.005 % Tween 20, 1 % DMSO, 0.2 mg/ml BSA) were performed at 25 °C, using a flow rate of 100 μl/min. In details, for the conjugate Cu‐Ph‐Pep , 1 : 2 dilution series starting from 200 μM were injected for 10 s association time, 45 s dissociation time, followed by a dissociation time of 600 s for the last higher concentration injection. Finally, for the conjugates Ph‐Pep and Zn‐Ph‐Pep , 1 : 2 dilution series starting from 50 μM and 100 uM, respectively, were injected for 30 s association time, 45 s dissociation time, followed by a dissociation time of 600 s for the last higher concentration injection. Blank injections were used for double referencing and a DMSO calibration curve for bulk correction. Analysis and correction of the obtained data were performed using the Creoptix WAVE control software (correction applied: X and Y offset; DMSO calibration; double referencing). Mass transport binding models with bulk correction were used to fit all experiments. All the experiments have been performed at least in triplicate.
Figure 5S. Quantitative binding kinetics of Aβ42 vs a) MCPTPyP; b) Cu-Ph-Pep; c) Ph-Pep; d) Zn-Ph-Pep; and e) Pep measured by GCI. All curves were blank subtracted. Experiments were performed in triplicate. All the quality assessments (i.e., χ2 shown in Table 1 of the main text , parameter errors, and residual plots were acceptable; the sensorgrams had sufficient curvatures an d the kinetic constant k off were within the measurable range) were fulfilled. Descriptive Statistical Analysis was employed to calculate the mean of the obtained values of k on, koff and KD as a measure of central tendency and standard deviations of the former values were computed as a measure of dispersion.
Figure 6S. […]

Sequence of Aβ42 (P05067 672-713 limits assumed): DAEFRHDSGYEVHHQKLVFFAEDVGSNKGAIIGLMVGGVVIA

χ^2 (average of the squared residuals, fitting confidence): 0.79±0.08
Compound: CC(=O)NCC(=O)N[C@@H](CCCCN=[N+]=[N-])C(=O)N1CCC[C@H]1C(=O)NCC(=O)N[C@@H](CCCCN)C(=O)N[C@@H](CC(C)C)C(=O)N[C@H](C(=O)N[C@@H](Cc1ccccc1)C(=O)N[C@@H](Cc1ccccc1)C(N)=O)C(C)C [Pep] (Ac-G[Lys(N3)]PGKLVFF-NH2)
